From PubChem BioAssay (NCI)
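Protocol summary: plate cells (96-well), add compound at 5 concentrations, incubate 48 h, interpolate endpoints linearly. TGI: concentration producing complete growth inhibition.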

How the values were obtained:
Experiment in all cases: NCI tumour cell line growth inhibition, 48 h
[1] = tested on: MALME-3M melanoma
[2] = tested on: HT29 colon
[3] = tested on: NCI-H226 lung
[4] = tested on: CAKI-1 renal
[5] = tested on: K-562 leukemia
[6] = tested on: SF-539 CNS
[7] = tested on: NCI-H522 lung
[8] = tested on: SNB-19 CNS
[9] = tested on: CCRF-CEM leukemia
[10] = tested on: TK-10 renal
[11] = tested on: IGROV1 ovarian
[12] = tested on: NCI-H23 lung
[13] = tested on: NCI-H460 lung
[14] = tested on: HOP-62 NSCLC
[15] = tested on: 786-0 renal
[16] = tested on: KM20L2 colon
[17] = tested on: M14 melanoma
[18] = tested on: UO-31 renal
[19] = tested on: RPMI-8226 leukemia
[20] = tested on: MOLT-4 leukemia
[21] = tested on: OVCAR-8 ovarian
[22] = tested on: SN12C renal
[23] = tested on: A549 NSCLC
[24] = tested on: HCT-15 colon
[25] = tested on: SF-295 CNS
[26] = tested on: M19-MEL melanoma
[27] = tested on: KM12 colon
[28] = tested on: LXFL 529 NSCLC
[29] = tested on: SR leukemia
[30] = tested on: SK-MEL-2 melanoma
[31] = tested on: SK-OV-3 ovarian
[32] = tested on: HCC-2998 colon
[33] = tested on: HOP-92 NSCLC
[34] = tested on: RXF-631 renal
[35] = tested on: LOX IMVI melanoma
[36] = tested on: SK-MEL-28 melanoma
[37] = tested on: UACC-257 melanoma
[38] = tested on: HL-60(TB) leukemia
[39] = tested on: XF 498 CNS
[40] = tested on: SW-620 colon
[41] = tested on: SNB-75 CNS
[42] = tested on: HCT-116 colon
[43] = tested on: OVCAR-5 ovarian
[44] = tested on: U251 CNS
[45] = tested on: ACHN renal
[46] = tested on: COLO 205 colon
[47] = tested on: SNB-78 CNS
[48] = tested on: DMS 273 small cell lung
[49] = tested on: EKVX NSCLC
[50] = tested on: HOP-18 NSCLC
[51] = tested on: DLD-1 colon
[52] = tested on: RXF 393 renal
[53] = tested on: SF-268 CNS
[54] = tested on: SK-MEL-5 melanoma
[55] = tested on: OVCAR-3 ovarian
[56] = tested on: DMS 114 small cell lung
[57] = tested on: UACC-62 melanoma
[58] = tested on: OVCAR-4 ovarian
[59] = tested on: A498 renal
[60] = tested on: MCF7 breast
[61] = tested on: P388 leukemia
[62] = tested on: P388/ADR leukemia
[63] = tested on: NCI/ADR-RES ovarian
[64] = tested on: SN12K1 renal

## COc1ccc(CCc2cc(OC)cc(OC)c2)cc1
[1]
  TGI: > 83.7 µM
[2]
  TGI: 47.9 µM
[3]
  TGI: > 100 µM
[4]
  TGI: > 100 µM
[5]
  TGI: 71.8 µM
[6]
  TGI: > 100 µM
[7]
  TGI: > 41 µM
[8]
  TGI: > 100 µM
[9]
  TGI: 96.8 µM
[10]
  TGI: > 100 µM
[11]
  TGI: > 100 µM
[12]
  TGI: > 100 µM
[13]
  TGI: > 100 µM
[14]
  TGI: > 100 µM
[15]
  TGI: > 100 µM
[16]
  TGI: > 58 µM
[17]
  TGI: > 100 µM
[18]
  TGI: > 100 µM
[19]
  TGI: 94.8 µM
[20]
  TGI: 56.5 µM
[21]
  TGI: > 100 µM
[22]
  TGI: > 100 µM
[23]
  TGI: > 100 µM
[24]
  TGI: > 100 µM
[25]
  TGI: > 100 µM
[26]
  TGI: > 100 µM
[27]
  TGI: > 100 µM
[28]
  TGI: > 100 µM
[29]
  TGI: > 100 µM
[30]
  TGI: > 62 µM
[31]
  TGI: > 100 µM
[32]
  TGI: 51.2 µM
[33]
  TGI: > 100 µM
[34]
  TGI: > 72.7 µM
[35]
  TGI: > 100 µM
[36]
  TGI: > 100 µM
[37]
  TGI: > 100 µM
[38]
  TGI: > 84.5 µM
[39]
  TGI: 83.8 µM
[40]
  TGI: > 67.3 µM
[41]
  TGI: > 81.3 µM
[42]
  TGI: > 100 µM
[43]
  TGI: > 100 µM
[44]
  TGI: > 100 µM
[45]
  TGI: > 100 µM
[46]
  TGI: > 60.5 µM
[47]
  TGI: > 100 µM
[48]
  TGI: > 100 µM
[49]
  TGI: > 100 µM
[50]
  TGI: > 100 µM
[51]
  TGI: > 100 µM
[52]
  TGI: 63.8 µM
[53]
  TGI: > 100 µM
[54]
  TGI: > 87 µM
[55]
  TGI: > 65.9 µM
[56]
  TGI: 24.6 µM
[57]
  TGI: > 100 µM
[58]
  TGI: > 100 µM
[59]
  TGI: > 100 µM

## Cc1ccccc1-c1nc2c(C(=O)NCCN(C)C)cccc2[nH]1
[60]
  TGI: > 100 µM
[1]
  TGI: > 62.2 µM
[2]
  TGI: > 100 µM
[3]
  TGI: 48 µM
[4]
  TGI: > 100 µM
[5]
  TGI: > 61.1 µM
[6]
  TGI: > 100 µM
[7]
  TGI: > 100 µM
[8]
  TGI: > 100 µM
[9]
  TGI: > 100 µM
[11]
  TGI: > 100 µM
[12]
  TGI: > 100 µM
[13]
  TGI: > 100 µM
[14]
  TGI: > 87.3 µM
[16]
  TGI: > 100 µM
[18]
  TGI: 68.7 µM
[61]
  TGI: 44.3 µM
[19]
  TGI: 73.4 µM
[20]
  TGI: 75.6 µM
[21]
  TGI: > 100 µM
[22]
  TGI: > 100 µM
[23]
  TGI: > 100 µM
[24]
  TGI: > 100 µM
[25]
  TGI: > 100 µM
[27]
  TGI: > 100 µM
[62]
  TGI: > 100 µM
[30]
  TGI: > 100 µM
[31]
  TGI: > 100 µM
[32]
  TGI: > 100 µM
[33]
  TGI: 85.1 µM
[63]
  TGI: > 100 µM
[64]
  TGI: > 100 µM
[35]
  TGI: > 100 µM
[36]
  TGI: > 100 µM
[37]
  TGI: > 100 µM
[38]
  TGI: > 74.6 µM
[39]
  TGI: > 100 µM
[40]
  TGI: > 100 µM
[41]
  TGI: > 100 µM
[42]
  TGI: > 100 µM
[43]
  TGI: > 100 µM
[44]
  TGI: > 100 µM
[46]
  TGI: 51.9 µM
[47]
  TGI: > 100 µM
[48]
  TGI: > 100 µM
[49]
  TGI: > 100 µM
[50]
  TGI: 54.8 µM
[51]
  TGI: > 100 µM
[52]
  TGI: > 100 µM
[53]
  TGI: > 100 µM
[54]
  TGI: 53.7 µM
[55]
  TGI: > 100 µM
[56]
  TGI: > 100 µM
[57]
  TGI: > 100 µM
[58]
  TGI: > 100 µM
[59]
  TGI: > 100 µM
